According to US8937152B2, “Non-selective somatostatin analogues” (Italfarmaco SpA, priority 2007, dated 2015):
Where two headings read alike, the source gives them in different places. *1 amine or outer side, *2 acyl side, *3 side chain or, on linkers, in order; H or OH if unused. Where a SMILES comes first, the peptide text is derived from it. Side-chain parts run from the residue outwards. [ ]: non-standard residue; d: D form. The star is where a group is joined. Ethylenediamine = C(CN[*:2])N[*:1]; Hyp = O=C(O)[C@@H]1C[C@@H](O)CN1; Phg = N[C@H](C(=O)O)c1ccccc1; CO = O=C([*:1])[*:2]; Bn = c1ccc(C*)cc1

What was measured:
[1] = molecular target: T1, hSSTR1 (Homo sapiens, UniProt P30872); assay: Binding assay, displacement of 3-[125I]iodotyrosyl11 Somatostatin-14; conditions: recombinant human receptor, cell membranes; 60 min at 25° C.
T1 construct: expressed in transfected cells
T1 sequence (P30872 whole entry): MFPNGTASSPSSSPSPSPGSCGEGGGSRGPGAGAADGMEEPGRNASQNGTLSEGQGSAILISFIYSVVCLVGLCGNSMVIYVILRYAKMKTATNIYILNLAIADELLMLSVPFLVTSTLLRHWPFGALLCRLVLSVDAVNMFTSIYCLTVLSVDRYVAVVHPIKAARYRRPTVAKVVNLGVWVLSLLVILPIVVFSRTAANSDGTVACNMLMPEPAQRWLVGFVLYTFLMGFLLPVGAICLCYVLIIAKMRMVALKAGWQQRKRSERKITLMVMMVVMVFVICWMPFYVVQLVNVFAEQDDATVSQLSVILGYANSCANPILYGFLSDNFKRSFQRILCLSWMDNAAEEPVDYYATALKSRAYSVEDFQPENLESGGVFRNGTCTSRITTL
Description: (§1) The binding assays were carried out, as is explained below, by using preparations of recombinant human receptors, hSSTR1, hSSTR2, hSSTR3 and hSSTR5, obtained from cell membranes (for example CHO) transfected according to standard methods.
(§2) The membranes are incubated in duplicate for 60 min. at 25° C. with 3-[125I]iodotyrosyl11Somatostatin-14 (Amersham, IM161, 2000 Ci/mmol) as radioligand and with increasing concentrations of the compound under examination, in 25 mM Hepes (pH 7.4) buffer, containing 5 mM MgCl2, 1 mM CaCl2, 10 μg/ml of Saponin, 0.5% BSA. The incubation is terminated by means of filtration with a Filtermate Harvester (Perkin Elmer) through GF/B filters, which are then washed 6 times with buffer (25 mM Hepes pH 7.4, 5 mM MgCl2, 1 mM CaCl2). The radioactivity of the filters is measured in a TopCount™ or MicroBeta™ reader for 1 min/well after having added the Microscint 20 liquid scintillation (Packard) and incubated for 15 min. in an orbital stirrer. The results are expressed as specific binding percentage of the radio-marked ligand, in the presence of increasing concentrations of the compound under examination. The IC50 values were calculated by using the “GraphPad Prism” software (IC50=concentration of compound necessary for obtaining half of the maximum inhibition, in the competitive binding test described above).

[2] = molecular target: T2, hSSTR2 (Homo sapiens, UniProt P30874); assay: as above; conditions: cell membranes, 60 min at 25° C.
T2 construct: expressed in transfected cells
T2 sequence (P30874 whole entry): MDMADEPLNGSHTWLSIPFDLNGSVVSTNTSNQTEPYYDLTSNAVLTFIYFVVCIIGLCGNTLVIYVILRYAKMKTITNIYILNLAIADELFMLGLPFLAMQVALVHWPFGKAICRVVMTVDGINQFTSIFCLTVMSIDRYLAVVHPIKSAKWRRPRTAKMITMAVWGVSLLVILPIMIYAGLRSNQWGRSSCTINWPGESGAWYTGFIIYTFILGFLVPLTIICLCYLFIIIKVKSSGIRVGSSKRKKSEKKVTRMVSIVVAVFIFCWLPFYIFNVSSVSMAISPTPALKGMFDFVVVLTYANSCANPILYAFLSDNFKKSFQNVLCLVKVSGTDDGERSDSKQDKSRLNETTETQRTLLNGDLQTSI
Description: as §1, §2

[3] = molecular target: T3, hSSTR3 (Homo sapiens, UniProt P32745); assay: as above; conditions: cell membranes, 60 min at 25° C.
T3 construct: expressed in transfected cells
T3 sequence (P32745 whole entry): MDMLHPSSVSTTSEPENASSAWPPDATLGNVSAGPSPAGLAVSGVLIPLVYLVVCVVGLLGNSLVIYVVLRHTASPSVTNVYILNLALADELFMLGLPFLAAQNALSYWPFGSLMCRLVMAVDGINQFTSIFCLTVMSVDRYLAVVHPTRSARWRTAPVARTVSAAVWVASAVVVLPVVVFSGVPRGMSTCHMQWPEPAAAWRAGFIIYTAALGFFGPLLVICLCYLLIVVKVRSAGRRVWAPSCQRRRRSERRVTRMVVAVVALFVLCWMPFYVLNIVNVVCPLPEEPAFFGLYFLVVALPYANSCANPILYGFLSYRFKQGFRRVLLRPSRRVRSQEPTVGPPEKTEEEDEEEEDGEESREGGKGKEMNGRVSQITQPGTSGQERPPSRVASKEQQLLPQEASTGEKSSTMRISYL
Description: as §1, §2

[4] = molecular target: T4, hSSTR5 (Homo sapiens, UniProt P35346); assay: as above; conditions: cell membranes, 60 min at 25° C.
T4 construct: expressed in transfected cells
T4 sequence (P35346 whole entry): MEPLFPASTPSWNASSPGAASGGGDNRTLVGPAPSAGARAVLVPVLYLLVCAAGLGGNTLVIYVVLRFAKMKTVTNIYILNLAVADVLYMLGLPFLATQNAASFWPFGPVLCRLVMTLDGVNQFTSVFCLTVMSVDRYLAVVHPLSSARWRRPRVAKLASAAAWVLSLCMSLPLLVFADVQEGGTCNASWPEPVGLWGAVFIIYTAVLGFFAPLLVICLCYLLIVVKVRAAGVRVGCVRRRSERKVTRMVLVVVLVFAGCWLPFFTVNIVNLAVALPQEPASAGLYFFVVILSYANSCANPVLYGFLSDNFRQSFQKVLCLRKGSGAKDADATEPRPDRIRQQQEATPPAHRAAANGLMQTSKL
Description: as §1, §2

[5] = Pharmacokinetic profile in rats, subcutaneous; assay type: in vivo; conditions: rat, sc, male rats, 1 mg/kg, plasma; for half-life: read-out: t½ (converted)
Description: Assay for the Pharmacokinetic Profile
The compounds of the invention also show, in rats, a very favourable pharmacokinetic profile. The pharmacokinetic profile was measured by administering the compounds to male rates, subcutaneously, at the dose of 1 mg/kg (CD, Sprague Dawley; 200-250 g). Blood samples were collected, at different times, up to 72 hours after the administration. The concentrations of the compound under examination were measured in the separated plasma samples, by means of an LC-MS/MS analysis method and the values were processed according to a non-compartmental model using the software “Kinetica”. In the following table, the main pharmacokinetic parameters obtained with the compound of example 1 are reported, compared with those obtained with PASIREOTIDE, another stable analogue of somatostatin, currently in clinical development phase (PASIREOTIDE was prepared by following the process described in WO2002010192).

[6] = system: rat pituitary cells; conditions: 3 h
[7] = comparison value, source and conditions not stated; cited from earlier work
[8] = system: release of GH stimulated by Nembutal; assay: In vivo inhibition of the GH production stimulated by barbiturates (Nembutal); design: species or system rat; conditions: male rats, subcutaneous
Description: Assay for the In Vivo Inhibition of the GH Production, Stimulated by Barbiturates
The compounds are administrated subcutaneously, at different doses, in male rats (CD, Harlan Italy). Blood samples are collected, at different times, one hour after the animals were anesthetised by means of intraperitoneal administration of Nembutal (60 mg/kg); the hormone levels are measured by means of the ELISA test. In the animals treated with the compounds of the invention, at doses from 5 to 250 μg/kg, there is a decrease of the produced GH levels.

[9] = recombinant human receptor, read-out: IC50 (nM) hSSTR2
[10] = recombinant human receptor, read-out: IC50 (nM) hSSTR3
[11] = recombinant human receptor, read-out: IC50 (nM) hSSTR5

Molecule | IC50 [1] | IC50 [2, 9] | IC50 [3, 10] | IC50 [4, 11] | other results
COc1cc2cccc(OC)c2cc1CC1NC(=O)[C@H](Cc2ccccc2)NC(=O)[C@@H]2C[C@@H](OC(=O)NCCN)CN2C(=O)[C@H](Cc2ccccc2)NC(=O)[C@H](Cc2ccc(OCc3ccccc3)cc2)NC(=O)[C@H](CCCCN)NC1=O (single isomer, unassigned) [Example 5, cyclo[Tyr(Bn)-Phe-Pro(4-OCONH(CH2)2NH2)-Phe-(D,L)3,8MNal-Lys]] | 10.8 nM | 9.3 nM | 0.31 nM | 0.42 nM | AUC ([5]; CD, Sprague Dawley): 2880 ng·h/mL; AUC(0-t) ([5]; CD, Sprague Dawley): 2730 ng·h/mL; Cmax ([5]; CD, Sprague Dawley): 224 ng/mL; MRT ([5]; CD, Sprague Dawley): 19 h; Tmax ([5]; CD, Sprague Dawley): 4 h; half-life ([5]; CD, Sprague Dawley): 31.3 h; IC50 [6]: 1.3 nM
COc1ccc(OC)c(CCC2NC(=O)[C@H](Cc3ccccc3)NC(=O)[C@@H]3C[C@@H](OC(=O)NCCN)CN3C(=O)[C@H](Cc3ccccc3)NC(=O)[C@H](Cc3ccc(OCc4ccccc4)cc3)NC(=O)[C@H](CCCCN)NC2=O)c1 (single isomer, unassigned) [Example 6, cyclo[Tyr(Bn)-Phe-Pro(4-OCONH(CH2)2NH2)-Phe-(D,L)2,5 MhPhe-Lys]] | 10 nM | 25.8 nM | 0.52 nM | 0.64 nM | –
COc1cc2cccc(OC)c2cc1CC1NC(=O)[C@H](Cc2ccc(O)cc2)NC(=O)[C@@H]2C[C@@H](OC(=O)NCCN)CN2C(=O)[C@H](Cc2ccccc2)NC(=O)[C@H](Cc2ccc(OCc3ccccc3)cc2)NC(=O)[C@H](CCCCN)NC1=O (stereo partly shown) [Example 14, cyclo[Tyr(Bn)-Phe-Pro(4-OCONH(CH2)2NH2)-Tyr-(D,L)3,8MNal-Lys]] | – | – | – | – | IC50 ([2]; IC50 (nM) hSSTR2, recombinant human receptor): 1.8 nM; IC50 ([3]; IC50 (nM) hSSTR3, recombinant human receptor): 0.35 nM; IC50 ([4]; IC50 (nM) hSSTR5, recombinant human receptor): 0.36 nM
C[C@@H](O)[C@@H]1NC(=O)[C@H](CCCCN)NC(=O)[C@@H](Cc2c[nH]c3ccccc23)NC(=O)[C@H](Cc2ccccc2)NC(=O)[C@@H](NC(=O)[C@H](N)Cc2ccccc2)CSSC[C@@H](C(=O)N[C@H](CO)[C@@H](C)O)NC1=O [OCTREOTIDE] | – | – | – | – | t½ [7]: about 2 hours
NCCCC[C@@H]1NC(=O)[C@@H](Cc2c[nH]c3ccccc23)NC(=O)[C@H](c2ccccc2)NC(=O)[C@@H]2C[C@@H](OC(=O)NCCN)CN2C(=O)[C@H](Cc2ccccc2)NC(=O)[C@H](Cc2ccc(OCc3ccccc3)cc2)NC1=O [PASIREOTIDE, reference compound] (cyclo([Hyp]([CO-Ethylenediamine])[Phg][dW]KY(Bn)F)) | – | – | – | – | AUC ([5]; Sprague Dawley (CD)): 2800 ng·h/mL; AUC(0-t) ([5]; Sprague Dawley (CD)): 2780 ng·h/mL; Cmax ([5]; Sprague Dawley (CD)): 668 ng/mL; MRT ([5]; Sprague Dawley (CD)): 4.87 h; Tmax ([5]; Sprague Dawley (CD)): 2 h; half-life ([5]; Sprague Dawley (CD)): 24.4 h
Fmoc-(D/L) 3-(3,8-dimethoxy-Naphthalene-2-yl)-Alanine [Example 1] | – | – | – | – | reduction of the release of GH ([8]; 5 μg/kg, six hours after the administration): 55%; reduction of GH, duration ([8]; 125 μg/kg, 24 hours after the administration): still measurable

Now from value to molecule, other results behind:

IC50 [1] | IC50 [2, 9] | IC50 [3, 10] | IC50 [4, 11] | Molecule | other results
5.8 nM | 9.2 nM | 1.33 nM | 0.97 nM | CNCCNC(=O)O[C@@H]1C[C@H]2C(=O)N[C@@H](Cc3ccccc3)C(=O)NC(Cc3cc4c(OC)cccc4cc3OC)C(=O)N[C@@H](CCCCN)C(=O)N[C@@H](Cc3ccc(OCc4ccccc4)cc3)C(=O)N[C@@H](Cc3ccccc3)C(=O)N2C1 (single isomer, unassigned) [Example 7, cyclo[Tyr(Bn)-Phe-Pro (4-OCONH(CH2)2NHCH3)-Phe-(D,L)3,8MNal-Lys]] | –
19.1 nM | 26.6 nM | 2.92 nM | 9.78 nM | COc1cc(CC2NC(=O)[C@H](Cc3ccccc3)NC(=O)[C@@H]3C[C@@H](OC(=O)NCCN)CN3C(=O)[C@H](Cc3ccccc3)NC(=O)[C@H](Cc3ccc(OCc4ccccc4)cc3)NC(=O)[C@H](CCCCN)NC2=O)c(OC)c2ccccc12 (single isomer, unassigned) [Example 8, cyclo[Tyr(Bn)-Phe-Pro(4-OCONH(CH2)2NH2)-Phe-(D,L)1,4-MNal-Lys]] | –
32.4 nM | 9.9 nM | 2.34 nM | 1.9 nM | COc1cc(CC2NC(=O)[C@H](Cc3ccccc3)NC(=O)[C@@H]3C[C@@H](OC(=O)NCCN)CN3C(=O)[C@H](Cc3ccccc3)NC(=O)[C@H](Cc3ccc(OCc4ccccc4)cc3)NC(=O)[C@H](CCCCN)NC2=O)c(OC)c2ccccc12 (single isomer, unassigned) [Example 9, cyclo[Tyr(Bn)-Phe-Pro(4-OCONH(CH2)2NH2)-Phe-(D,L)1,4-MNal-Lys]] | –
1 nM | 7 nM | 1.8 nM | 1.62 nM | COc1cc2cccc(OC)c2cc1CC1NC(=O)[C@H](Cc2ccccc2)NC(=O)[C@@H]2C[C@@H](OC(=O)NCCN)CN2C(=O)[C@H](Cc2ccccc2)NC(=O)[C@H](COCc2ccccc2)NC(=O)[C@H](CCCCN)NC1=O (single isomer, unassigned) [Example 15, cyclo[Ser(Bn)-Phe-Pro(4-OCONH(CH2)2NH2)-Phe-(D,L)3,8MNal-Lys]] | –
